We go through one compound from patent US20220111055A1, “MODIFIED HYDROPHOBIC EXCIPIENT AND PREPARATION METHOD THEREOF” (ZHEJIANG ZHIDA PHARMACEUTICAL CO., LTD., priority 2019, published 2022).

A short description of the series: Solubility of paclitaxel in olive oil, castor oil and hydrophobic excipients (crystal formation in dried sample). The format is physicochemical. To be noted: for solubility of paclitaxel (crystal formation in the dried sample): 0.5 ml paclitaxel chloroform solution (10 mg/ml), volatilized overnight. The procedure:
The specific experimental method was as follows. […] The chloroform solution was mixed with 0.5 ml of chloroform, from which 0.5 ml of diluent was taken and two-fold serial dilution was performed by using chloroform. Then 0.5 ml of a chloroform solution of paclitaxel (10 mg/ml) was added to the above-mentioned sample after the two-fold serial dilution, and then left in a hood to be naturally volatilized overnight. Crystal formation in the dried sample was observed and recorded.

Turning to `CCCCCCCC/C=C\CCCCCCCCNC(=O)CC[C@@H](C)[C@H]1CC[C@H]2[C@@H]3[C@H](OC(=O)CNC(=O)[C@H](CCCCNC(=O)OC(C)(C)C)NC(=O)OCC4c5ccccc5-c5ccccc54)C[C@@H]4C[C@H](OC(=O)CNC(=O)[C@H](CCCCNC(=O)OC(C)(C)C)NC(=O)OCC5c6ccccc6-c6ccccc65)CC[C@]4(C)[C@H]3C[C@H](OC(=O)CNC(=O)[C@H](CCCCNC(=O)OC(C)(C)C)NC(=O)OCC3c4ccccc4-c4ccccc43)[C@]12C` [Example 4], the “solubility of paclitaxel (crystal formation in the dried sample)” value is given as “+” (0.98 mg hydrophobic excipient); “+” (1.95 mg hydrophobic excipient); “+” (3.90 mg hydrophobic excipient); “+/−” (7.81 mg hydrophobic excipient); “−” (15.65 mg hydrophobic excipient); “−” (31.30 mg hydrophobic excipient). In addition, the “solubility of paclitaxel (crystal formation in the dried sample)” value runs as follows: (62.50 mg hydrophobic excipient) “−”; (125.00 mg hydrophobic excipient) “−”; (250.00 mg hydrophobic excipient) “−”. For the same compound, the “solubility of paclitaxel in the excipient, comparison in words” value (compared with olive oil and castor oil, from Table 1) is “greater than that in olive oil and castor oil”.
